Consider seven compounds from patent US4455441A, “Attractant termiticidal compounds, compositions and methods of use therefor” (Research Foundation of State University of New York, priority 1982, dated 1984).

Like-named read-outs stand apart in the source and are kept apart here. A value given as a limit tells only on which side of the number the result lay.

Series [1] concerns Reticulitermes flavipes. Kind of series: Bioassay of fluoroalkanols (Petri dish assay), termite toxicity. The class given is in vivo, Reticulitermes flavipes Kollar. As to conditions: quantity impregnated in filter pads required to cause 50% mortality at 3 days. Here is the method: Test compounds were dissolved in dry diethyl ether or dichloromethane and a 1.0 ml portion of the solution was pipetted onto a Gelman sterile 47-mm cellulose pad (Howard and Haverty, 1979). The ether was allowed to evaporate for 10 min, 1.0 ml of distilled water was added to the pad, and the pad was placed in a tight-sealing Gelman 50-mm plastic Petri dish.
Termites (Reticulitermes flavipes Kollar) were collected from rotten logs and tree stumps on the Stony Brook campus. Colonies were kept in trash cans in an insectary (85% RH, 27° C.) for a period of about 6 months before use in this experiment. The experiments were performed in an incubator at +28° C. Undifferentiated larvae above the third instar ("workers") were used in all toxicity tests. Termites were first shaken loose from the interior of the wood, then transferred using mouth aspirators and with soft forceps. The termites were held on filter paper for 24 hours, twenty healthy termites were added to each dish, and the number of dead which were then removed to prevent cannibalism was recorded at daily intervals.
^c Quantity of fluoro compound impregnated in filter pads required to
cause 50% mortality at 3 days.

Series [2] relates to mice. As to conditions: based on Pattison (1959), cited from earlier work.
The test system of series [3] is termites. Kind of series: Maximum attractiveness (above 50% level). The class given is in vivo.
Series [4] has as its system termites. The experiment in a line: Trail activity (trail following by termites). The series is classed as in vivo. Conditions: at 5 × 10^-6 g/10 c (highest conc. tested). The text has this: ^a Value is minimum quantity (in grams) per 10 cm required to elicit
trailfollowing by a total of 8/20 termites in four trails.
^b Maximum number of termites following at 5 × 10^-6 g/10 c
(highest conc. tested).

The mark [5] stands for this setting: estimate from comparison compound C12 satd.
Setting [6] is: estimate from comparison compound C18 satd.
The mark [7] stands for this setting: saturated omega-fluoro compound.

16-fluoro-Z/E 9-hexadecen-1-ol: the “Median Lethal-dose” value in series [1] is 0.020 mg/dish. For the same compound, the “Estimated LD50 (mice)” value in series [2] (setting [5]) was 1.5 mg/kg; in series [2] (setting [6]) it was 4.0 mg/kg.

Turning to `OCC/C=C\CCCCCCF` [10-fluoro-(Z)-3-decen-1-ol], in series [1], the “Median Lethal-dose” value was “.0095 mg/dish”. In addition, the “Estimated LD50 (mice)” value in series [2] (estimate from comparison compound C10 satd.) is listed as 1.0 mg/kg.

Turning to `OCC/C=C\CCCCCCCCF` [12-Fluoro-(Z)-3-dodecen-1-ol], the “Median Lethal-dose” value in series [1] was “.0093 mg/dish”. Also, the “Estimated LD50 (mice)” value in series [2] (setting [5]) is listed as 1.5 mg/kg. In addition, in series [3], the “Maximum attractiveness (above 50% level)” value is 10^-7 9.

On to `OCC/C=C\C/C=C\CCCCCF` [12-fluoro-(Z),(Z)-3,6-dodecadien-1-ol], for which the “Median Lethal-dose” value in series [1] was “.012 mg/dish”. The “Estimated LD50 (mice)” value in series [2] (setting [5]) is listed as 1.5 mg/kg. Besides, the “Maximum attractiveness (above 50% level)” value in series [3] is given as 10^-7 9. Further, the “Maximum attractiveness (above 50% level), minimum” value in series [3] (minimum) is 10^-8.

Take `OCCCCCCCC/C=C/CCCCCCF` [16-fluoro-Z/E 9-hexadecen-1-ol]: the “Median Lethal-dose” value in series [1] is 0.024 mg/dish. For the same compound, the “Estimated LD50 (mice)” value was 1.5 mg/kg in series [2] (setting [5]) and 4.0 mg/kg in series [2] (setting [6]).

For `OCCCCCCCCCCCF` [F(CH2)10 CH2 OH], the “Trail activity, maximum number of termites following” value in series [4] is listed as 6/20. Moreover, the “Median Lethal-dose” value in series [1] was “.062 mg/dish”. Besides, the “Estimated LD50 (mice)” value in series [2] (setting [7]) is greater than 100 mg/kg.

On to `OCCCCCCCCCCCCF` [F(CH2)11 CH2 OH, 12-fluorododecan-1-ol], for which, in series [4], the “Trail activity, maximum number of termites following” value is 6/20. Besides, the “Median Lethal-dose” value in series [1] is reported as “.0077 mg/dish”. Also, the “Estimated LD50 (mice)” value in series [2] (setting [7]) is recorded as 1.5 mg/kg.
